{
  "source": "paper PMC7053711",
  "about": "“A G protein–coupled receptor mediates neuropeptide-induced oocyte maturation in the jellyfish Clytia” (PLoS Biology, 2020)",
  "key": {"[1]": {"system": "fully grown oocytes isolated from MIHR mutant (n5-23) gonads", "experiment": "Oocyte maturation assay, MIHR mutant isolated oocytes (GVBD)", "type": "cell-based, Clytia hemisphaerica", "conditions": "for Oocyte maturation (number) / Percentage of Oocytes maturing: 0,1uM WPRPa, MIH R K.O.", "text": "Fig 4 Oocyte maturation failure in MIHR mutant medusae. Oocyte maturation assays performed using isolated gonads (A, B) or isolated oocytes (C) from MIHR mutant jellyfish compared to WT. In A and C, bar heights represent mean percentages of 3 independent experiments and error bars show standard deviations. Total gonad or oocyte numbers for each treatment are indicated in gray. (A) Spawning response of isolated gonads from WT and n5-23 female medusae. Three treatments were compared as indicated above each panel: Light: light stimulation after incubation in the dark; MIH: treatment of light-maintained gonads with 100 nM WPRPamide; cAMP: treatment of light-maintained gonads with 4 mM Br-cAMP. […] Full datasets from three independent experiments are available in S3 Data. (B) Light microscope images illustrating gonads from an equivalent experiment performed with n5-13 female MIHR mutant medusae 120 minutes after the indicated treatments. Scale bar: 500 μm. […] Full datasets from 3 independent experiments are available in S3 Data. Br-cAMP, bromoadenosine 3′,5′-cyclic monophosphate; cAMP, cyclic adenosine monophosphate; KO, knockout; MIH, maturation-inducing hormone; MIHR, MIH receptor; WT, wild-type.\nFully grown oocytes were isolated manually from dissected gonads of wild-type and MIHR KO mutant jellyfish prepared as above. Maturation assays were performed in wells of 96-well plates or small plastic petri dishes lined with 2% agarose in MFSW. Spontaneous maturation occurs at a low frequency in control oocytes. To test MIH-induced maturation, 10 μL WPRPamide from 1 μM solution in MFSW was added to a final concentration of 100 nM. In some experiments, Br-cAMP from a 20 mM stock in H2O was used at a final concentration of 4 mM. GVBD was scored at 30 minutes, every 5 minutes, depending on experiments.\n(§1) Supplementary file pbio.3000614.s013.xlsx: S3 Data Numerical data corresponding to Fig 4A and 4C. The first tab collects all the raw data from 3 independent gonad spawning assays. Information corresponding to the Fisher exact tests is also shown. […] The means and standard deviations were used to prepare the graph in Fig 4C. Information corresponding to the Fisher exact tests is also shown. (XLSX) Click here for additional data file."}, "[2]": {"system": "wild-type (WT) isolated female gonads", "experiment": "Gonad spawning assay, wild-type isolated gonads", "parameters": "species or system Clytia hemisphaerica", "protocol": "We performed a series of oocyte maturation and spawning assays, comparing the responses of wild-type and MIHR mutant isolated gonads and oocytes to different stimuli (Fig 4).\nSexually mature MIHR mutant medusae from colonies n5-13 and n5-23 and wild-type medusae were cultured on the same day–night cycle. Individual gonads were dissected in the evening after afternoon spawning. To test the light response, one group of each was transferred to 100 μL MFSW in wells of 96-well plastic plates, covered overnight, and re-exposed to white light the following day. To test responses to MIH and cAMP, other groups of dissected gonads were cultured overnight in constant light, then transferred to 96-well plastic plates for two hours. MIH was added to wells as an equal volume of 200 nM WPRPamide (GenScript) stock in MFSW was added to give a final concentration of 100 nM. Alternatively, a stock of 20 mM bromo adenosine 3′,5′cyclic monophosphate (Br-cAMP–Fluka; Sigma Aldrich) in distilled water was added to give a final concentration of 4 mM. Gonads were washed after 5 minutes incubation in Br-cAMP. Oocyte maturation was scored after 30 minutes as germinal vesicle breakdown (GVBD), i.e., visible dissolution of the oocyte nuclear membrane upon entry into M phase, which in all cases was followed by spawning about 1 hour later.\nas §1"}, "[3]": {"conditions": "WPRPa, pooled n=46, Fisher exact test vs WT significant at p < .01"}, "[4]": {"conditions": "0,1uM WPRPa, wild type, replicate 1, total 22"}, "[5]": {"conditions": "0,1uM WPRPa, wild type, replicate 2, total 24"}, "[6]": {"conditions": "0,1uM WPRPa, wild type, replicate 3, total 18"}, "[7]": {"conditions": "WPRPa, pooled n=64, Fisher exact test vs MIHR KO significant at p < .01"}},
  "note": "Peptide text beside a SMILES is read from it.",
  "data": [
    {"smiles": "N=C(N)NCCC[C@H](NC(=O)[C@@H]1CCCN1C(=O)[C@@H](N)Cc1c[nH]c2ccccc12)C(=O)N1CCC[C@H]1C(N)=O", "note": "[WPRPa] (H-WPRP-NH2; N-terminus assumed)", "values": [
      {"measurement": "Oocyte maturation (number)", "setting": "[1]; replicate 1, total 14", "value": 1},
      {"measurement": "Percentage of Oocytes maturing", "setting": "[1]; replicate 1, total 14", "value": 7.14},
      {"measurement": "Oocyte maturation (number)", "setting": "[1]; replicate 2, total 11", "value": 0},
      {"measurement": "Percentage of Oocytes maturing", "setting": "[1]; replicate 2, total 11", "value": 0.00},
      {"measurement": "Oocyte maturation (number)", "setting": "[1]; replicate 3, total 21.00", "value": 2},
      {"measurement": "Percentage of Oocytes maturing", "setting": "[1]; replicate 3, total 21.00", "value": 9.52},
      {"measurement": "Maturing oocytes, MIHR KO YES", "setting": "[1]; [3]", "value": 3},
      {"measurement": "Non-maturing oocytes, MIHR KO NO", "setting": "[1]; [3]", "value": 43},
      {"measurement": "Percentage of spawning gonads, Mean", "setting": "[2]; 0,1uM WPRPa, wild type, mean of 3 replicates, Desvest 7.87296", "value": 95.4545},
      {"measurement": "Gonads spawning (number)", "setting": "[2]; [4]", "value": 19},
      {"measurement": "Percentage of spawning gonads", "setting": "[2]; [4]", "value": 86.3636},
      {"measurement": "Gonads spawning (number)", "setting": "[2]; [5]", "value": 24},
      {"measurement": "Percentage of spawning gonads", "setting": "[2]; [5]", "value": 100},
      {"measurement": "Gonads spawning (number)", "setting": "[2]; [6]", "value": 18},
      {"measurement": "Percentage of spawning gonads", "setting": "[2]; [6]", "value": 100},
      {"measurement": "Non-spawning gonads, WT NO", "setting": "[2]; [7]", "value": 3},
      {"measurement": "Spawning gonads, WT YES", "setting": "[2]; [7]", "value": 61},
      {"measurement": "oocyte maturation and spawning of WT gonads", "setting": "[2]; isolated WT gonads, 100 nM WPRPamide", "value": "underwent oocyte maturation and spawning"}
    ]}
  ]
}
